Marks after values point to notes of the source that are not given here.
Experiments:
db/db mice = experiment: Body weight of db/db mice; assay type: in vivo, mouse; details: 5 mg/kg ULMA for 15 d
Description: 8 week old db/db mice were treated with vehicle (V; 1% gum acacia) or with 5 mg/kg ULMA for 15 days and the body weights were measured on 0th, 7th, 10th, or 15th day of treatment and plotted. ** p<0.01, n=6.
8 week old female db/db mice (n=6) weighing 40-50 g were divided into 2 groups and maintained as above. Control groups received vehicle (1% gum acacia) and ULMA groups received 5 mg/kg bw ULMA in 1% gum acacia for […]. Body weight and blood glucose were measured at the beginning and end of the studies.

wistar rats [1] = experiment: Dexamethasone mediated cardiac hypertrophy in rats (heart weight/body weight ratio); assay type: in vivo, rat
Description: Following 15 d treatment with indicated compounds or vehicle, animals were euthanized and heart weight and body weight were measured and heart weight/body weight ratio were calculated and plotted. Data represents mean+/−SEM. N=6. *p<0.05 as determined by student's t-test.
(§1) Blood was collected from cardiac punctures.
Therefore, the heart weight/body weight ratio was measured in these rats (described in Example 6A-C).

wistar rats [2] = experiment: Dexamethasone-mediated reduction of food intake in rats; assay type: in vivo, rat
Description: Six to eight week old wistar rats (n=6 per group) were housed separately and treated as indicated in the example. Daily food intake was measured and plotted. […] Data represents mean+/−SEM.
as §1
Food intake was measured every alternate day by giving measured food to each cage in evening (5.00 PM) and collection of residual food in next morning (9.00 AM) and measuring it. The residual food was subtracted from the food given and plotted.

PGC-1α = PGC-1α acetylation status (immunoprecipitation, anti-acLys western) in C2C12 myotubes; assay type: cell-based, mouse; details: 10 nM, 6 hours
Description: C. ULMA induces PGC-1α deacetylation. C2C12 myotubes plated in 10 cm dish were treated with vehicle (0.1% vol/vol DMSO) or 10 nM ULMA in DMSO for 6 h. The cell lysates were then incubated with 5 μg anti-PGC-1α antibody (Calbiochem) for 12 h at 4° C. on a rotating wheel set at 10 RPM. 20 μl of protein A and protein G sepharose beads (Sigma; 1:1) was then added to the solution and the incubation was continued for another 2 h. The tubes were then centrifuged (1000 RPM) for 1 min and the supernatant was discarded. The pellets were washed 7 times. The beads were boiled in 50 μl 2× lammeli buffer for 5 min and cooled immediately on ice and following quick spin, the supernatants were resolved by denaturing polyacrylamide gel electrophoresis and western blotted with anti-acetylated lysine (acLys) antibody. Data represent one of three independent experiments displaying identical pattern. […]

wistar rats [3] = experiment: Dexamethasone induced loss of body weight and death in rats; details: for Final body weight (g) / Survival/group (%): 2 weeks
Description: All animal experiments were conducted in accordance with current legislation on animal experiments [Institutional Animal Ethical Committee (IAEC)] at C.D.R.I. In all animal experiments, rats were individually housed at 21° C., in 12-h light:12-h dark cycles. All animals had access to normal chow diet and water ad libitum.
Food intake was measured daily and the rats were weighed each week. The rats were fasted overnight (O/N) on day 14th and on day 15th oral glucose tolerance test was performed. Following oral glucose tolerance test (OGTT), rats were kept with food and water ad libitum for one day. On day 16th, rats were fasted again O/N and then euthanized. At autopsy, from 5 animals/group, tissues were collected and snap frozen in liquid nitrogen. Blood was collected from cardiac punctures. Plasma was separated from whole blood by centrifugation at 3000 rpm for 20 min immediately after collection of blood and stored at −80° C. until further analysis. […] (quadriceps) skeletal muscles were processed for RNA and protein extraction, followed by quantitative real-time PCR (QRT-PCR) analysis. Two animals from each group were used for photography post autopsy.

O=C1c2c(cc(O)c([C@@H]3O[C@H](CO)[C@@H](O)[C@H](O)[C@H]3O)c2O)O[C@@H](c2ccc(O)c(O)c2)[C@@H]1O [ULMA, (2S,3S)-(+)-3′,4′,5,7-tetrahydroxydihydroflavonol-6-C-β-D-glucopyranoside]
body weight compared to vehicle treated control mice (db/db mice): significantly reduced body weight
Dex-caused increase of heart/body weight ratio (wistar rats [1]; Dex + ULMA): significantly alleviated this increase
heart weight/body weight ratio in control animals (wistar rats [1]; ULMA alone): did not change
food intake in vehicle treated (ethanol: IP) rats (wistar rats [2]; 5 mg/kg ULMA oral alone): did not affect food intake
Dex-caused loss in food intake (wistar rats [2]; Dex + 5 mg/kg ULMA oral): alleviated it
level of acetylated PGC-1α (PGC-1α): decreased
Final body weight (g) (wistar rats [3]; Dex + ULMA-1 mg): 176.5 ± 5.9^c g
Survival/group (%) (wistar rats [3]; Dex + ULMA-1 mg): 73.3%
Final body weight (g) (wistar rats [3]; Dex + ULMA-5 mg): 192.7 ± 3.8^b,c g
Survival/group (%) (wistar rats [3]; Dex + ULMA-5 mg): 100%
change in body weight in control animals (wistar rats [3]; rat, in vivo): did not cause any significant change

Source: patent publication US20160193240A1, “Ulmoside-A: Useful For Prevention Or Cure Of Metabolic Diseases” (COUNCIL OF SCIENTIFIC & INDUSTRIAL RESEARCH, priority 2013, published 2016)
